Test results: patent US20100095396A1, “METHOD FOR INCREASING THE DRY BIOMASS OF PLANTS” (priority 2006, published 2010)

Key:
Corn = assay: Increase of the dry biomass of corn plants after seed treatment; format: in vivo; conditions: harvested 37 days after emergence, dried at 110° C., free disease conditions
From the text: (§1) Treatment with fipronil or fipronil+alpha-cypermethrin under free disease conditions
(§2) Corn was cultivated under customary conditions at Campinas (Brazil) in 2005/2006. A part of the seeds of the test plants had beforehand been treated with fipronil. Another part of the seeds of the plants had beforehand been treated with a mixture of fipronil and alpha-cypermethrin. 37 days after the emergence of the plants, the plants and their roots were harvested. The leaves and the roots were completely dried in an oven at 110° C. and then weighed.

Soybean = assay: Increase of the dry biomass of soybean plants after seed treatment; format: in vivo; conditions: harvested 35 days after emergence, dried at 110° C., free disease conditions
From the text: as §1
as §2, with “Soybean” for “Corn”, “35” for “37”

For N#Cc1nn(-c2c(Cl)cc(C(F)(F)F)cc2Cl)c(N)c1[S+]([O-])C(F)(F)F (stereo not drawn) [Fipronil, 5-amino-1-(2,6-dichloro-α,α,α-trifluoro-p-tolyl)-4-trifluoromethylsulfinylpyrazole-3-carbonitrile], the Dry weight leaves (Corn) was 23.38, the Dry weight roots (Corn) was 41.27 and the Dry weight leaves (Soybean) was 13.15. It also gave a Dry weight roots (Soybean) of 15.6.
